Laboratory results from EPA's ToxValDB 9.5 (doi:10.2903/j.efsa.2017.4718).

What was measured:
Anatidae = conditions: not reported; oral; feed; no effects
Canidae = conditions: short-term; duration: 14 days; oral; diet; Dog Other; body weight
Cyprinus carpio = conditions: subchronic; duration: 6 weeks; oral; feed; histopathology: nonneoplastic
Equus caballus = conditions: subchronic; duration: 40 days; no effects
Felidae = conditions: short-term; duration: 14 days; oral; diet; Cat; body weight
Gallus gallus = conditions: subchronic; duration: 5 weeks; oral; diet; M; Chicken; no effects
Meleagris sp. = conditions: subchronic; duration: 12 weeks; oral; feed; M; no effects
Neovison vison = conditions: short-term; duration: 28 days; oral; diet; F; food consumption
Oryctolagus sp. = conditions: short-term; duration: 21 days; oral; diet; M; no effects
Ovis sp. = conditions: short-term; duration: 28 days; oral; diet; food consumption
Sus scrofa = conditions: subchronic; duration: 3 months; oral; diet; Not specified; food consumption

Structure (SMILES): CC1=C[C@H]2O[C@@H]3[C@H](O)C[C@](C)([C@@]2(CO)[C@H](O)C1=O)[C@@]31CO1 [Vomitoxin]
- NOAEL (Anatidae): 7 mg/kg
- NOAEL (Bovidae; chronic, duration: 126 days, oral, diet, food consumption): 10 mg/kg-day
- NOAEL (Bovidae; chronic, duration: 166 days, oral, diet, food consumption): 18 mg/kg-day
- NOAEL (Bovidae; subchronic, duration: 13 weeks, F, no effects): 5.24 mg/kg-day
- NOAEL (Canidae): 4 mg/kg-day
- NOAEL (Cyprinus carpio): 0.6 mg/kg
- NOAEL (Equus caballus): 36 mg/kg
- NOAEL (Felidae): 6 mg/kg-day
- NOAEL (Gallus gallus): 5 mg/kg-day
- NOAEL (Meleagris sp.): 6.5 mg/kg
- LEL (Mus musculus; chronic, duration: 2 years, immunology): ≥ 0.0016 mg/kg-day
- NOAEL (Mus musculus; chronic, duration: 2 years, oral, diet, M/F, B6C3F1, food consumption): 0.1 mg/kg-day
- NOAEL (Mus musculus; developmental, development): 0.5 mg/kg-day
- NOAEL (Mus musculus; reproduction developmental, oral, diet, M/F, reproduction): 0.38 mg/kg-day
- NOAEL (Mus musculus; short-term, duration: 14 days, oral, diet, M/F, BALB/cAnCr, hematological): 0.1 mg/kg-day
- NOAEL (Neovison vison): 1.18 mg/kg-day
- NOAEL (Oryctolagus sp.): 4.3 mg/kg-day
- NOAEL (Ovis sp.): 16 mg/kg-day
- NOAEL (Sus scrofa): 0.7 mg/kg-day
